The values that follow come from patent US20120021061A1, “MEDICAL AND NUTRITIONAL FORMULATIONS” (Comvita New Zealand Limited, priority 2008, published 2012).

One experiment deals with H. pylori SS1. In words: Viability of H. pylori SS1 after overnight incubation with MGO or honey (drop plate CFU). Format: cell-based, Helicobacter pylori. The conditions noted are these: for Helicobacter pylori viable count: catalase treated. The protocol:
The H. pylori SS1 strain was obtained and initially cultured on Campylobacter Selective Agar (CSA) plates and incubated at 37° C. under microaerobic conditions (10% Co2) for 48 h. Following culture, the isolates were checked for purity (microscopy, catalase and oxidase), after which SS1 was cultured in Brucella broth supplemented with 5% Fetal Bovine Serum and 1% Vitox under microaerobic conditions with shaking for 24 h. The effect of 1) methylglyoxal (MGO), density 1.17 g/ml, 2) Honey M1: Manuka honey O50336-10 (MGO content=0.593 mg/g), 3) Honey M2=Honey M1 adjusted to a pH of 9.0, 4) Honey M3=Comvita Wound Care Honey 18+ (MGO content=0.6 mg/g) and 5) Honey C: Control honey (100% Australian Honey, Leabrook Farms, Australia) on H. pylori was determined. MGO at concentrations of 1, 5, 10, 20, 50 and 100 mg/L were prepared by dissolving an appropriate amount of MGO in Brucella broth. To ensure an equivalent concentration of MGO in the Manuka honeys, the appropriate weight of honey (Honey M1 and Honey M2=6.75 g), (Honey M3=6.67 g) was measured out, after which an equal volume of Brucella broth at 37° C. was added to the honey and this was vortexed to aid mixing. Following vortexing, an equal volume of catalase solution (2 mg/ml) prepared from bovine liver was added to negate the effect of hydrogen peroxide, and this was again vortexed to aid mixing. The total volume was then adjusted to 40 ml using Brucella broth. […] The control Honey C was prepared in a similar fashion starting with an initial weight=6.71 g). To avoid contamination with lactic acid bacteria that are commonly present in honey (e.g. Leuconostoc citreum and Lactococcus garvieae), preparations of honey M1 and Honey C were filter sterilized through 0.22 µm pore size membrane filters prior to use in the in vitro assay. The Comvita wound care 18+ honey was not filter sterilised as this product undergoes sterilisation on manufacture. […] H. pylori were grown in broth culture overnight as described above. Following incubation, cells were washed once and resuspended in Brucella broth to an Optical Density (OD) 600 1.5. Ten pl of the microbial suspension was then inoculated into wells of a 96-well microtiter plate containing 200 pl of broth, supplemented with a range of concentrations of MGO (0, 1, 5, 10, 20, 50 and 100 mg/L), or an equivalent concentration of MGO contained in the Manuka honeys, or the same percentage of control honey. Each of the concentrations of MGO, MGO in the Manuka honeys and the control honey were tested in triplicate. Following addition of H. pylori to the microtiter plates, these were incubated under microaerobic conditions (10% CO2) overnight. Following incubation the number of viable colonies in the wells was assessed using the drop plate method. Following incubation the number of visible colonies on CSA agar plates were counted and the colony forming units (CFU)/ml calculated.

In a further experiment the test system is Helicobacter pylori. In words: Helicobacter pylori infected mice fed honey. The conditions noted are these: honey 2.8 g/kg body weight, MGO given in sugar solution. Format: in vivo. The source says: An experiment was completed feeding manuka honey with a UMF 22 to Helicobacter pylori infected mice at a rate of 2.8 g/kg body weight honey.
For the next experiment, the system named is TNFα. In words: Cytokine production by peripheral blood mononuclear cells, TNFα. Format: cell-based. The conditions noted are these: human PBMC supernatants; FIG. 11. The protocol: (§1) An experiment was completed using three honey samples, the first being a high UMF manuka honey containing 1002 mg of MGO/kg, a moderate UMF manuka honey containing 649 mg of MGO/kg, a clover honey containing minimal MGO/kg and pure MGO alone. Results were compared against a negative control with cells alone […] and PHA as the inflammatory agent. Human blood was collected from six donors and peripheral blood mononuclear cells were separated by Ficoll gradients. Donor bloods were processed in pairs. The experiments tested the effect of the honey on the blood cells and the levels of cytokines produced. Supernatents from cells incubated with varying honey and MGO concentrations were collected and assayed for a number of pro and anti-inflammatory cytokines. Cytokines are molecules secreted by cells that are involved in communication between cells. Cytokines bind to specific receptors on cell surfaces and the signals then created can alter cellular functions. The cytokines tested in this study were IL-1β, IL-10 and […]. Cytokines were measured using a biorad, bioplex suspension array system.

A further experiment has as its system neutrophils. In words: Neutrophil superoxide production with honeys of increasing MGO. The conditions noted are these: increasing MGO concentrations in honey. Format: cell-based. The source says:
The inventors conducted an experiment to determine whether increasing MGO concentrations also increase the ability of honey with the MGO to prevent or slow neutrophils from making superoxides (a part of the inflammatory response).

For the next experiment, the system named is IL-10. The experiment can be described thus: Cytokine production by peripheral blood mononuclear cells, IL-10. Format: cell-based. The conditions noted are these: human PBMC supernatants; FIG. 10. How it is done: as §1
The next experiment concerns IL-1β. The experiment can be described thus: Cytokine production by peripheral blood mononuclear cells, IL-1β. Format: cell-based. The conditions noted are these: human PBMC supernatants; FIG. 9. How it is done:
as §1

The next experiment concerns E. coli O157/Nissle. Format: cell-based. The conditions noted are these: no honey.

Read-outs that look alike come from different tables or passages of the source.

Consider `CC(=O)C=O` [MGO (pH 9), methylglyoxal], for which the “Helicobacter pylori viable count” value in the experiment on H. pylori SS1 (MGO conc 50 mg/L, honey conc 8.4%, listed as MGO at pH 9) is listed as 6.9×10^6 CFU/ml; in the experiment with H. pylori SS1 (MGO conc 100 mg/L, honey conc 16.7%, listed as MGO at pH 9), 1.7×10^6 CFU/ml.

For the compound `CC(=O)C=O` [MGO, methylglyoxal], the “H. pylori bacteria numbers in infected mice” value in the experiment with Helicobacter pylori is “does not reduce bacteria numbers alone”. Also, the “MGO concentration at which CFU of H. pylori SS1 were reduced” value in the experiment with H. pylori SS1 (MGO alone or equivalent MGO in honey) is reported as no less than 20 mg/L. Moreover, the “Helicobacter pylori viable count” value in the experiment with H. pylori SS1 (MGO conc 20 mg/L, honey conc 4.2%) is listed as 7.1×10^6 CFU/ml; with H. pylori SS1 (MGO conc 50 mg/L, honey conc 8.4%), 7.0×10^5 CFU/ml; in the experiment with H. pylori SS1 (MGO conc 100 mg/L, honey conc 16.7%) it was 1.1×10^4 CFU/ml. Further, the TNFα production entry with TNFα is listed as “no effect”. In the experiment with neutrophils, the “Ability to prevent or slow neutrophils from making superoxides” value is listed as “made no difference at all”. Besides, in the experiment on IL-10, the IL-10 values entry is “not affected”. Besides, the IL-1β production entry in the experiment with IL-1β is recorded as “no effect”.

With `OO` [Peroxide, hydrogen peroxide], the “Mean inhibition zone (n = 3)” value in the experiment on E. coli O157/Nissle (peroxide 36.7 mM + catalase 1000 U/mL) is 0.0 mm; in the experiment with E. coli O157/Nissle (peroxide 36.7 mM alone) it was 3.3 mm.

Regarding Catalase, the “Mean inhibition zone (n = 3)” value in the experiment on E. coli O157/Nissle (catalase 1000 U/mL alone) is 0.0 mm.
